Earlier results in PubChem BioAssay AID1259409 (Chemical Carcinogenesis Research Information System (CCRIS), 2018).

System: rodent chemically induced tumor inhibition, incidence and multiplicity
Assay: CCRIS tumor inhibitor studies
Settings: Promoter: NONE USED

Oc1ccc(O)cc1
tumour outcome (control, treated, inhibition, significance) (Carcinogen: BENZO[A]PYRENE, 50-32-8, Dose [Inhibitor]: 5 MG IN 0.1 ML ACETONE 3/WK ADMINISTERED SIMULTANEOUSLY WITH CARCINOGEN FOR DURATION OF STUDY (STUDY DURATION: 368 D), Route [Inhibitor]: DERMAL, Species: MOUSE, Strain/Sex: ICR/FEMALE, Target Tissue: Type of Lesion: SKIN: PAPILLOMA, Dose [Carcinogen]: 5 UG IN 0.1 ML ACETONE 3/WK FOR DURATION OF STUDY): 14/50 (28%), 7/50 (14%), 50%, not calculated | tumour outcome (control, treated, inhibition, significance) (Carcinogen: BENZO[A]PYRENE, 50-32-8, Dose [Inhibitor]: 5 MG IN 0.1 ML ACETONE 3/WK ADMINISTERED SIMULTANEOUSLY WITH CARCINOGEN FOR DURATION OF STUDY (STUDY DURATION: 368 D), Route [Inhibitor]: DERMAL, Species: MOUSE, Strain/Sex: ICR/FEMALE, Target Tissue: Type of Lesion: SKIN: SQUAMOUS CARCINOMA, Dose [Carcinogen]: 5 UG IN 0.1 ML ACETONE 3/WK FOR DURATION OF STUDY): 10/50 (20%), 3/50 (6%), 70%, not calculated | tumour outcome (control, treated, inhibition, significance) (Carcinogen: N-ETHYL-N-HYDROXYETHYLNITROSAMINE, 13147-25-6, Dose [Inhibitor]: 0, 0.8% IN DIET FOR 36 WK BEGINNING 1 WK POST CARCINOGEN TREATMENT (STUDY DURATION: 40 WK), Route [Inhibitor]: ORAL, Species: RAT, Strain/Sex: WISTAR/MALE, Target Tissue: Type of Lesion: LIVER: HEPATOCELLULAR ADENOMA, Dose [Carcinogen]: 0.1% IN DRINKING WATER FOR 3 WK): 10/17 (59%), 11/18 (61%), -3%, not significant | tumour outcome (control, treated, inhibition, significance) (Carcinogen: N-ETHYL-N-HYDROXYETHYLNITROSAMINE, 13147-25-6, Dose [Inhibitor]: 0, 0.8% IN DIET FOR 36 WK BEGINNING 1 WK POST CARCINOGEN TREATMENT (STUDY DURATION: 40 WK), Route [Inhibitor]: ORAL, Species: RAT, Strain/Sex: WISTAR/MALE, Target Tissue: Type of Lesion: LIVER: HEPATOCELLULAR CARCINOMA, Dose [Carcinogen]: 0.1% IN DRINKING WATER FOR 3 WK): 7/17 (41%), 3/18 (17%), 56%, not significant

COc1ccc2cc(CCC(C)=O)ccc2c1
tumour outcome (control, treated, inhibition, significance) (Carcinogen: N-METHYL-N-NITROSOUREA, 684-93-5, Dose [Inhibitor]: 0, 0.03% IN DIET FOR 24 WK BEGINNING 1 WK POST CARCINOGEN DOSE (STUDY DURATION: 25 WK), Route [Inhibitor]: ORAL, Species: RAT, Strain/Sex: SPRAGUE-DAWLEY/FEMALE, Target Tissue: Type of Lesion: MAMMARY GLAND: TUMOR, Dose [Carcinogen]: 50 MG/KG ONCE): 24/30 (80%), 13/31 (42%), 48%, p<0.005

CN1CCN(CCCN2c3ccccc3Sc3ccc(C(F)(F)F)cc32)CC1
tumour outcome (control, treated, inhibition, significance) (Carcinogen: AZOXYMETHANE, 25843-45-2, Dose [Inhibitor]: 0, 15 MG/KG BW IN OLIVE OIL 1/2 D FOR 35 WK BEGINNING WITH START OF CARCINOGEN TREATMENT (STUDY DURATION: 35 WK), Route [Inhibitor]: SUBCUTANEOUS, Species: RAT, Strain/Sex: WISTAR/MALE, Target Tissue: Type of Lesion: COLON: TUMORS, Dose [Carcinogen]: 7.4 MG/KG BW IN 0.9% SALINE 1/WK FOR 10 WK): 8/17 (47%), 11/17 (65%), -38%, not significant | tumour outcome (control, treated, inhibition, significance) (Carcinogen: AZOXYMETHANE, 25843-45-2, Dose [Inhibitor]: 0, 30 MG/KG BW IN OLIVE OIL 1/2 D FOR 35 WK BEGINNING WITH START OF CARCINOGEN TREATMENT (STUDY DURATION: 35 WK), Route [Inhibitor]: SUBCUTANEOUS, Species: RAT, Strain/Sex: WISTAR/MALE, Target Tissue: Type of Lesion: COLON: TUMORS, Dose [Carcinogen]: 7.4 MG/KG BW IN 0.9% SALINE 1/WK FOR 10 WK): 8/17 (47%), 9/20 (45%), 4%, not significant
